# Laboratory results reported in patent US7186824B2, “Reduction inhibitory agent for active-oxygen eliminating activity” (Kabushiki Kaisha Hayashibara Seibutsu Kagaku Kenkyujo, priority 1997, dated 2007).
# Key:
# Assay type in all cases: biochemical
# [1] = Active-oxygen eliminating activity of superoxide dismutase and antioxidants in water or trehalose solution before/after storage (NBT test); conditions: for Activity (unit/mg antioxidant) Before storage: in trehalose solution, trehalose concentration 45%; for Activity (unit/mg antioxidant) After storage: light-shielded
# Procedure: (§1) Fresh raw carrots were disrupted by a mixer, and 10% of either of saccharides, d.s.b., was added to the mixture and dissolved therein. The solution was dried under reduced pressures at 40° C. for two days, dried in vacuo at the same temperature for 24 hours, and pulverized by a mixer into a powdery carrot composition. The saccharides used were commercialized reagents of glucose, mannitol, sorbitol, maltose, sucrose, trehalose, and pullulan. An about 100 g of the composition was placed and sealed in a 500-ml polystyrene container, and stored at 40° C. for seven days. The active-oxygen eliminating activity of the composition before and after the storage were compared. The assay for the active-oxygen eliminating activity followed the nitroblue tetrazolium test by Toshio IMANARI et at in Igakuno Ayumi, Vol. 101, pp. 496–497 (1977); the level of superoxide, formed in a xanthine-xanthine oxidase system, was assayed by quantifying calorimetrically the content of formazan formed by reducing NBT. As a control, refined water was used as a test solution. One unit activity of active-oxygen eliminating activity is defined as that inhibits 50% formazan formation as compared with the control. […] The reduction inhibitory activity of trehalose was strongly higher than that of glucose as the constituent saccharide for trehalose, and that of maltose as a disaccharide consisting of two glucose units similar to trehalose. Thus trehalose is suitably used as an effective ingredient for a reduction inhibitory agent for active-oxygen eliminating activity.
# In one milliliter of a 45 w/v % trehalose solution was dissolved five micrograms of superoxide dismutase from a horseradish-commercialized by Sigma Chemical Co., St. Louise, USA, 10 mg α-glucosyl hesperidin commercialized by Hayashibara Biochemical Laboratories, Inc., Okayama, Japan, 10 mg α-glucosyl rutin commercialized by Hayashibara Biochemical Laboratories, Inc., Okayama, Japan, 250 μg gallic acid commercialized by Wako Pure Chemical Industries, Ltd., Tokyo, Japan, or 50 μg catechin to obtain a liquid composition. Each of the compositions was placed in a glass test tube, sealed with a rubber cap, and stored under light-shielded conditions. As a control, water was used in place of the trehalose solution. […] Mere mixing of a powdery crystalline trehalose hydrate and either of the powdery antioxidants into a powdery mixture, almost no change of the active-oxygen eliminating activity was observed when subjected to storage test similarly as above.
# [2] = Influence of trehalose concentration on active-oxygen eliminating activity of powdery carrot composition before/after storage (NBT test); conditions: for Activity (unit/g) After storage / Percentage of residual activity (%): 40° C. for seven days; for Activity (unit/g) Before storage: powdery carrot composition
# Procedure: as §1
# Similarly as in Experiment 1, 0–20% of trehalose, d.s.b., was mixed with and dissolved in a disrupted carrot. The resulting each mixture was dried in vacuo at 40° C. for 24 hours, and pulverized into a powdery carrot composition. Similarly as in Experiment 1, each powdery composition was placed and sealed in a polystyrene container, and stored at 40° C. for seven days for evaluating the reduction inhibitory activity for active-oxygen eliminating activity. […] Based on the data from Table 2, at least of about one percent, preferably, at least of about five percent, and more preferably, at least of about 20% of trehalose, d.s.b., exerted a desired effective reducing inhibitory activity for active-oxygen eliminating activity.
# [3] = Influence of saccharides on active-oxygen eliminating activity of powdery carrot composition before/after storage (NBT test); conditions: compared among the saccharides tested, 40° C. seven days
# Procedure: Fresh raw carrots were disrupted by a mixer, and 10% of either of saccharides, d.s.b., was added to the mixture and dissolved therein. The solution was dried under reduced pressures at 40° C. for two days, dried in vacuo at the same temperature for 24 hours, and pulverized by a mixer into a powdery carrot composition. The saccharides used were commercialized reagents of glucose, mannitol, sorbitol, maltose, sucrose, trehalose, and pullulan. An about 100 g of the composition was placed and sealed in a 500-ml polystyrene container, and stored at 40° C. for seven days. The active-oxygen eliminating activity of the composition before and after the storage were compared. The assay for the active-oxygen eliminating activity followed the nitroblue tetrazolium test by Toshio IMANARI et at in Igakuno Ayumi, Vol. 101, pp. 496–497 (1977); the level of superoxide, formed in a xanthine-xanthine oxidase system, was assayed by quantifying calorimetrically the content of formazan formed by reducing NBT. As a control, refined water was used as a test solution. One unit activity of active-oxygen eliminating activity is defined as that inhibits 50% formazan formation as compared with the control. […]
# [4] = trehalose 0%, stored 80° C. 5 days
# [5] = trehalose 45%, stored 80° C. 5 days
# [6] = 0.1% trehalose added to carrot (content 1.0% d.s.b.)
# [7] = 0.5% trehalose added to carrot (content 4.9% d.s.b.)
# [8] = 1.0% trehalose added to carrot (content 9.4% d.s.b.)
# [9] = 2.5% trehalose added to carrot (content 20.7% d.s.b.)
# [10] = 5.0% trehalose added to carrot (content 34.2% d.s.b.)
# [11] = 10.0% trehalose added to carrot (content 51.1% d.s.b.)
# [12] = 20.0% trehalose added to carrot (content 67.6% d.s.b.)
# [13] = trehalose 45%, stored 25° C. 20 hours
molecule,measurement,setting,value
"O=C(O)c1cc(O)c(O)c(O)c1 [Gallic acid, gallic acid]",Activity (unit/mg antioxidant) Before storage,[1],570 unit/mg antioxidant
same,Activity (unit/mg antioxidant) After storage,[1]; [4],390 unit/mg antioxidant
same,Residual activity (%),[1]; [5],82%
same,Activity (unit/mg antioxidant) After storage,[1]; [5],470 unit/mg antioxidant
"OC[C@H]1O[C@H](O[C@H]2O[C@H](CO)[C@@H](O)[C@H](O)[C@H]2O)[C@H](O)[C@@H](O)[C@@H]1O [Trehalose, α,α-trehalose]",Activity (unit/g) After storage,[2]; [6],400 unit/g
same,Percentage of residual activity (%),[2]; [6],43%
same,Activity (unit/g) After storage,[2]; [7],460 unit/g
same,Percentage of residual activity (%),[2]; [7],61%
same,Activity (unit/g) After storage,[2]; [8],480 unit/g
same,Percentage of residual activity (%),[2]; [8],56%
same,Activity (unit/g) After storage,[2]; [9],460 unit/g
same,Activity (unit/g) After storage,[2]; [10],370 unit/g
same,Percentage of residual activity (%),[2]; [10],62%
same,Activity (unit/g) After storage,[2]; [11],330 unit/g
same,Percentage of residual activity (%),[2]; [11],83%
same,Activity (unit/g) After storage,[2]; [12],240 unit/g
same,Percentage of residual activity (%),[2]; [12],63%
same,Activity (unit/g) Before storage,[2]; [6],930 unit/g
same,Activity (unit/g) Before storage,[2]; [7],750 unit/g
same,Activity (unit/g) Before storage,[2]; [8],860 unit/g
same,Activity (unit/g) Before storage,[2]; [9],700 unit/g
same,Activity (unit/g) Before storage,[2]; [10],600 unit/g
same,Activity (unit/g) Before storage,[2]; [11],400 unit/g
same,Activity (unit/g) Before storage,[2]; [12],380 unit/g
same,reduction inhibitory activity for active-oxygen eliminating activity (in words),[3],strong effect
Superoxide dismutase,Activity (unit/mg antioxidant) Before storage,[1],"11,000 unit/mg antioxidant"
same,Activity (unit/mg antioxidant) After storage,"[1]; trehalose 0%, stored 60° C. 17 hours","4,600 unit/mg antioxidant"
same,Activity (unit/mg antioxidant) After storage,"[1]; trehalose 45%, stored 60° C. 17 hours","9,400 unit/mg antioxidant"
catechin,Activity (unit/mg antioxidant) Before storage,[1],380 unit/mg antioxidant
same,Activity (unit/mg antioxidant) After storage,"[1]; trehalose 0%, stored 25° C. 20 hours",2.2 unit/mg antioxidant
same,Residual activity (%),[1]; [13],82%
same,Activity (unit/mg antioxidant) After storage,[1]; [13],310 unit/mg antioxidant
α-glucosyl hesperidin,Activity (unit/mg antioxidant) Before storage,[1],3.6 unit/mg antioxidant
same,Activity (unit/mg antioxidant) After storage,[1]; [4],1.0 unit/mg antioxidant
same,Residual activity (%),[1]; [5],67%
same,Activity (unit/mg antioxidant) After storage,[1]; [5],2.4 unit/mg antioxidant
α-glucosyl rutin,Activity (unit/mg antioxidant) After storage,[1]; [4],18 unit/mg antioxidant
same,Activity (unit/mg antioxidant) After storage,[1]; [5],22 unit/mg antioxidant
